Test [1] deals with γ-aminobutyric acid transaminase. The conditions noted are these: literature compounds; cited from earlier work.
Test [2] concerns spontaneous motor activity. In words: spontaneous motor activity in rodents (sedative properties), procedure of Dews. The class given is in vivo. The conditions noted are these: 100-200 mg/kg, mice or rats. The procedure: The sedative properties of the compounds of this invention were determined by measuring spontaneous motor activity in rodents by the procedure described by P. Dews, Brit. J. Pharmacol. 8, 46 (1953).

The subject of another test is audiogenic seizures. The test is described as follows: protection against audiogenic seizures in DBA mice (method of Simler et al.). The class given is in vivo, mice of the DBA strain. The conditions noted are these: 50-200 mg/kg. The source says:
This ability is further shown by the protective effect of this treatment on audiogenic seizures in mice of the DBA strain measured by the general method described by Simler et al., Biochem. Pharmacol. 22, 1701 (1973), which is currently used to evidence antiepileptic activity.

A further test relates to reserpine ptosis. In words: reserpine ptosis test of Rubin et al. (anti-depressant activity). The conditions noted are these: 50 mg/kg i.p. in mice one hour after 2 mg/kg i.v. reserpine; 3 hours after drug administration; control reserpinized animals 6.5. Format: in vivo. The method, then:
The ability of the compounds of this invention at doses ranging from 50 to 200 mg/kg, to alleviate reserpine ptosis has been shown by the classical test of B. Rubin et al., J. Pharmacol. 120, 125 (1957), which is currently used to determine anti-depressant activity. For instance, in intraperitoneal injection 50 mg/kg of 4-amino-5-yne-hexanoic acid in mice, one hour after an intravenous injection of 2 mg/kg reserpine dissolved in 2% ascorbic acid/water results in a palpebral aperture of 5.5, 3 hours after drug administration as compared to 6.5 for control reserpinized animals.

Test [3] in a line: loss of body weight in rats on daily dosing. The class given is in vivo. The conditions noted are these: rats weighing 190 g; oral 25 mg/kg for four days (not a sedative dose); saline group 250 g. The method, then:
For instance, rats weighing 190 g, when given for four days, oral doses of 25 mg/kg 4-amino-5-yne-hexanoic acid (which is not a sedative dose) weigh only 170 gms as compared to 250 g for animals of the same group which were given saline for the same period.

Test [4] has as its system brain level of γ-aminobutyric acid. The conditions noted are these: literature compound, cited from earlier work.

`NCC#CC(=O)O` [4-aminotetrolic acid]: the “type of inhibition of γ-aminobutyric acid transaminase” value in test [1] is reported as “competitive reversible inhibitor”.

With `C#CC(N)CCC(=O)O` (racemic) [4-amino-5-yne-hexanoic acid, 4-Amino-5-yne-hexanoic acid], in test [2] (i.v., i.p. or oral), the “time after administration at which decreased motor activity is still observable” value is no less than 48 h and the “time at which decreased motor activity appears after administration” value was determined as 1 h. In addition, in test [2] (intravenous, intraperitoneal or oral route), the “effect on spontaneous motor activity” value was “substantially decreased motor activity”. Further, the “duration of protection against audiogenic seizures” value with audiogenic seizures is given as “over 16 hours”. Also, the “protection against audiogenic seizures” value with audiogenic seizures (one hour after treatment) is on record as “complete protection”. Also, the palpebral aperture in the test with reserpine ptosis is 5.5. Besides, in test [3], the “body weight after treatment” value worked out at 170 gms.

Turning to `CCCC(CCC)C(=O)O` [n-dipropylacetate], the “type of inhibition of γ-aminobutyric acid transaminase” value in test [1] was “competitively inhibiting”. Moreover, the “effect on brain levels of γ-aminobutyric acid” value in test [4] was “elevate brain levels of γ-aminobutyric acid”. Besides, the “duration of the effect on brain γ-aminobutyric acid” value in test [4] (reversible effect) is reported as “about 2 hours”.

The record behind these values is patent US3959356A, “Acetylene derivatives of amino acids” (Richardson-Merrell Inc., priority 1975, dated 1976).
